Data from patent US20260317324A1, “BIFUNCTIONAL COMPOUNDS FOR DEGRADING BRAF VIA UBIQUITIN PROTEOSOME PATHWAY” (Nurix Therapeutics, Inc., priority 2023, published 2026).

Biological target: T1, BRAF V600E (Homo sapiens, UniProt P15056, V600E)
T1 construct: endogenous C-terminal HiBiT fusion tag on BRAF V600E allele; endogenous in cells; host or cells: A375 clone 1F10 (CRISPR-Cas9 knock-in of the HiBiT tag; parental A375 from ATCC)
Assay: BRAF HiBiT degradation assay, C-terminal HiBiT-tagged BRAF V600E A375 cells (clone 1F10), Nano-Glo HiBiT Lytic assay
Format: cell-based
Conditions: A375 (BRAF V600E); for DC50: DC50 at 50%: fitted conc. at Y=50; for Dmax: A-375, percentage protein degraded at maximal compound effect relative to DMSO
Description: An A375 cell line expressing a homozygous V600E mutation was purchased from ATCC (Manassas, VA, USA). An A375 clone 1F10 cell line with an endogenous C-terminal HiBiT fusion tag on BRAF V600E allele was generated internally using CRISPR-Cas9 technology and cultured in DMEM, high glucose supplemented with 10% FBS and 1× GlutaMAX. A HCT-116 BRAF−/− cell line overexpressing the C-terminal HiBiT-tagged G466V, G469A, and D594G mutants were generated by lentiviral transduction, externally at Biosettia Inc (San Diego, CA, USA). The stably transfected cells were cultured in RPMI media supplemented with 10% FBS, 1× GlutaMAX, and 0.25 μg/ml puromycin. DMEM medium, RPMI 1640 medium, GlutaMAX, fetal bovine serum (FBS), and puromycin were purchased from Gibco (Grand Island, NY, USA). HCT-116 BRAF−/− cells were purchased from Horizon Discovery (Waterbeach, UK).
The C-terminal HiBiT tagged BRAF A375 cells (monoclonal cell line, cell clone 1F10) were seeded at a density of 10,000 cells/well in 30 μL media (DMEM, high glucose supplemented with 10% FBS and 1× GlutaMAX) in white opaque 384-well plates (Corning #3570) from column 1 to column 23. The wildtype A375 cells were seeded in column 24 at the same cell density in 30 μL media. Cells were incubated at 37° C. with 5% CO2 for 24 h.
Intermediate compound dilution series (5-point, ranging from 5 mM to 0.5 μM, 10-fold dilutions in DMSO) were prepared in a source plate (Beckman Coulter cat. no. 001-16128). Final compound dilution series (11-point, ranging from 1 μM to 0.01 nM, half-log dilutions in DMSO) were stamped into the assay plate (Corning #3570, column 1-11 and 12-22) using the Echo Acoustic Liquid Handler (Beckman Coulter). Each compound was plated in duplicate, and the total volume of compound DMSO solution was 60 nL/well (0.2% final DMSO concentration). DMSO was included in wells A23-L23 and A24-L24. The DMSO-treated HiBiT-tagged samples served as Negative Control (NC) and the DMSO-treated wildtype samples served as Background Control (BC) for the HiBiT assay.
HiBiT signal was measured by a Nano-Glo HiBiT Lytic assay (Promega cat. no. N3050). HiBiT lytic detection reagent (Nano-Glo HiBiT Lytic Buffer with 1:50 Nano-Glo HiBiT Lytic Substrate and 1:100 LgBiT Protein, 40 μL) was added using Bravo. The mixture was incubated at room temperature, in the dark, and with gentle shaking for 10 min. Luminesce units (LU) were read on an EnVision plate reader 2105 (Perkin Elmer).
Percent protein remaining and viability remaining per sample were calculated as follows: […]
% Protein remaining values were plotted as a function of compound concentration. XC50 (DC50) values were determined by fitting curves using the following equation:
For the HiBiT degradation assay, the key parameters reported include: • The dose of compound that produces 50% degradation (DC50 at 50%): • DC50 at 50%: the Fitted X value (Conc.) at Y=50 (response) • Observed Dmax (Obs. Dmax) is the percentage protein degraded at maximal compound effect relative to DMSO-treated control: […]

T1 sequence (P15056 whole entry V600E, the tested form may be a part): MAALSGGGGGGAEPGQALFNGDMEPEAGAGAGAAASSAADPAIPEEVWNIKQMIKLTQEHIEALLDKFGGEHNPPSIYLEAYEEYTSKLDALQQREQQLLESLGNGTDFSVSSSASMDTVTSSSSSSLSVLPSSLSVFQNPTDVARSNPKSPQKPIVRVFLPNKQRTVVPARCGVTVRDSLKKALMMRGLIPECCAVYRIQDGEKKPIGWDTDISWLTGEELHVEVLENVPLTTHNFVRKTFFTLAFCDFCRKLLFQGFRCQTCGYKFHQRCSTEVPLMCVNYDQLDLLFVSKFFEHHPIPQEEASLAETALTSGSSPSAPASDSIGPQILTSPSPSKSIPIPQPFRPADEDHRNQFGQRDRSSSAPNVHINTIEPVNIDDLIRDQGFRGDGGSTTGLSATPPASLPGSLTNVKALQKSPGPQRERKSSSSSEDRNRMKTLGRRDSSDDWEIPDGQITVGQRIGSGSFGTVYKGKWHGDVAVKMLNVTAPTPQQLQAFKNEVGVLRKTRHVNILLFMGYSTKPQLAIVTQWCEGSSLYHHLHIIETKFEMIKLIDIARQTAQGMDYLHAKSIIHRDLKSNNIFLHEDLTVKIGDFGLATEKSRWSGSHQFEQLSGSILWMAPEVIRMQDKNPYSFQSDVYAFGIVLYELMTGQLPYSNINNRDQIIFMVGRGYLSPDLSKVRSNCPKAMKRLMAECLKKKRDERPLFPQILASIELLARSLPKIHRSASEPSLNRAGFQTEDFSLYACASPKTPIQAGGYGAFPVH

DC50 | Dmax | Compound
50 to 500 nM | 30 to 70% | CCCS(=O)(=O)Nc1cccc(-c2nc(C(C)(C)C)sc2-c2ccnc(Nc3cccc(OC4CCN(C(=O)C[C@H]5CCN(c6ccc(C7CCC(=O)NC7=O)cc6)C5)CC4)c3)n2)c1F (mixture of isomers) [Compound 91, N-(3-{2-tert-butyl-5-[2-({3-[(1-{2-[(3R)-1-{4-[(3RS)-2,6-dioxopiperidin-3-yl]phenyl}pyrrolidin-3-yl]acetyl}piperidin-4-yl)oxy]phenyl}amino)pyrimidin-4-yl]-1,3-thiazol-4-yl}-2-fluorophenyl)propane-1-sulfonamide]
10 to 50 nM | > 70% | CCCS(=O)(=O)Nc1cccc(-c2nc(C)sc2-c2ccnc(Nc3ccc(C4CCN(CC5CCN(c6ccc([C@@H]7CCC(=O)NC7=O)cc6)CC5)CC4)cc3)n2)c1F [Compound 64, N-[3-(5-{2-[(4-{1-[(1-{4-[(3S)-2,6-dioxopiperidin-3-yl]phenyl}piperidin-4-yl)methyl]piperidin-4-yl}phenyl)amino]pyrimidin-4-yl}-2-methyl-1,3-thiazol-4-yl)-2-fluorophenyl]propane-1-sulfonamide]
50 to 500 nM | 30 to 70% | CCCS(=O)(=O)Nc1cccc(-c2cn(-c3ccc(N4CCN(C(=O)C5CCN(c6ccc(C7CCC(=O)NC7=O)cc6)CC5)CC4)cc3)nc2-c2ccncc2)c1F (racemic) [Compound 26, Rac-N-[3-(1-{4-[4-(1-{4-[(3R)-2,6-dioxopiperidin-3-yl]phenyl}piperidine-4-carbonyl)piperazin-1-yl]phenyl}-3-(pyridin-4-yl)-1H-pyrazol-4-yl)-2-fluorophenyl]propane-1-sulfonamide]
10 to 50 nM | > 70% | CCCS(=O)(=O)Nc1cccc(-c2cn(-c3ccc(N4CCN(CC5CCN(c6ccc([C@@H]7CCC(=O)NC7=O)cn6)CC5)CC4)cc3)nc2-c2ccncc2)c1F [Compound 1, N-{3-[1-(4-{4-[(1-{5-[(3S)-2,6-dioxopiperidin-3-yl]pyridin-2-yl}piperidin-4-yl)methyl]piperazin-1-yl}phenyl)-3-(pyridin-4-yl)-1H-pyrazol-4-yl]-2-fluorophenyl}propane-1-sulfonamide]
10 to 50 nM | 30 to 70% | CCCS(=O)(=O)Nc1cccc(-c2nc(C(C)(C)C)sc2-c2ccnc(Nc3ccc(C4CCN(C(=O)COc5ccc6c(c5)C(=O)N(C5CCC(=O)NC5=O)C6=O)CC4)cc3)n2)c1F (racemic) [Compound 176, Rac-N-[3-(2-tert-butyl-5-{2-[(4-{1-[2-({2-[(3R)-2,6-dioxopiperidin-3-yl]-1,3-dioxo-2,3-dihydro-1H-isoindol-5-yl}oxy)acetyl]piperidin-4-yl}phenyl)amino]pyrimidin-4-yl}-1,3-thiazol-4-yl)-2-fluorophenyl]propane-1-sulfonamide]
< 10 nM | > 70% | CCCS(=O)(=O)Nc1cccc(-c2nc(C3CCC4(CC3)CN(C(=O)C3CN(C5CCN(c6ccc7c(c6)C(=O)N(C6CCC(=O)NC6=O)C7=O)CC5)C3)C4)sc2-c2ccnc(N)n2)c1F (racemic) [Compound 241, Rac-N-{3-[5-(2-aminopyrimidin-4-yl)-2-{2-[1-(1-{2-[(3R)-2,6-dioxopiperidin-3-yl]-1,3-dioxo-2,3-dihydro-1H-isoindol-5-yl}piperidin-4-yl)azetidine-3-carbonyl]-2-azaspiro[3.5]nonan-7-yl}-1,3-thiazol-4-yl]-2-fluorophenyl}propane-1-sulfonamide]
10 to 50 nM | 30 to 70% | CCCS(=O)(=O)Nc1cccc(-c2nc(C(C)(C)C)sc2-c2ccnc(Nc3cccc(OC4CCN(C(=O)C5CCN(c6ccc(C(=O)NC7CCC(=O)NC7=O)nc6)CC5)CC4)c3)n2)c1F (racemic) [Compound 95, Rac-5-[4-(4-{3-[(4-{2-tert-butyl-4-[2-fluoro-3-(propane-1-sulfonamido)phenyl]-1,3-thiazol-5-yl}pyrimidin-2-yl)amino]phenoxy}piperidine-1-carbonyl)piperidin-1-yl]-N-[(3R)-2,6-dioxopiperidin-3-yl]pyridine-2-carboxamide]
10 to 50 nM | 30 to 70% | CCCS(=O)(=O)Nc1cccc(-c2nc(-c3ccc(C4CCN(C(=O)C5CCN(c6ccc(C7CCC(=O)NC7=O)cn6)CC5)CC4)cc3)sc2-c2ccnc(N)n2)c1F (racemic) [Compound 201, Rac-N-{3-[5-(2-aminopyrimidin-4-yl)-2-{4-[1-(1-{5-[(3R)-2,6-dioxopiperidin-3-yl]pyridin-2-yl}piperidine-4-carbonyl)piperidin-4-yl]phenyl}-1,3-thiazol-4-yl]-2-fluorophenyl}propane-1-sulfonamide]
< 10 nM | > 70% | CCCS(=O)(=O)Nc1cccc(-c2nc(C3CCN(C(=O)C4CN(C5CCN(c6ccc7c(c6)C(=O)N(C6CCC(=O)NC6=O)C7=O)CC5)C4)CC3)sc2-c2ccnc(N)n2)c1F (racemic) [Compound 242, Rac-N-{3-[5-(2-aminopyrimidin-4-yl)-2-{1-[1-(1-{2-[(3R)-2,6-dioxopiperidin-3-yl]-1,3-dioxo-2,3-dihydro-1H-isoindol-5-yl}piperidin-4-yl)azetidine-3-carbonyl]piperidin-4-yl}-1,3-thiazol-4-yl]-2-fluorophenyl}propane-1-sulfonamide]
10 to 50 nM | > 70% | CCCS(=O)(=O)Nc1cccc(-c2cn(-c3ccc(C(=O)N4CCN(C(=O)CC5CCN(c6ccc(C7CCC(=O)NC7=O)cn6)CC5)CC4)cc3)nc2-c2ccncc2)c1F (racemic) [Compound 13, Rac-N-{3-[1-(4-{4-[2-(1-{5-[(3R)-2,6-dioxopiperidin-3-yl]pyridin-2-yl}piperidin-4-yl)acetyl]piperazine-1-carbonyl}phenyl)-3-(pyridin-4-yl)-1H-pyrazol-4-yl]-2-fluorophenyl}propane-1-sulfonamide]
10 to 50 nM | > 70% | CCCS(=O)(=O)Nc1cccc(-c2nc(C(C)(C)C)sc2-c2ccnc(NC3CC4(C3)CN(CC3CCN(C(=O)C5CCN(c6ccc(C7CCC(=O)NC7=O)cc6)CC5)CC3)C4)n2)c1F (racemic) [Compound 140, Rac-N-[3-(2-tert-butyl-5-{2-[(2-{[1-(1-{4-[(3R)-2,6-dioxopiperidin-3-yl]phenyl}piperidine-4-carbonyl)piperidin-4-yl]methyl}-2-azaspiro[3.3]heptan-6-yl)amino]pyrimidin-4-yl}-1,3-thiazol-4-yl)-2-fluorophenyl]propane-1-sulfonamide]
10 to 50 nM | 30 to 70% | CCCS(=O)(=O)Nc1cccc(-c2nc(-c3ccc(N4CCN(C(=O)C5CCN(c6ccc(C7CCC(=O)NC7=O)cc6)CC5)CC4)cc3)sc2-c2ccnc(N)n2)c1F (racemic) [Compound 190, Rac-N-{3-[5-(2-aminopyrimidin-4-yl)-2-{4-[4-(1-{4-[(3R)-2,6-dioxopiperidin-3-yl]phenyl}piperidine-4-carbonyl)piperazin-1-yl]phenyl}-1,3-thiazol-4-yl]-2-fluorophenyl}propane-1-sulfonamide]
50 to 500 nM | 30 to 70% | CCN(C)S(=O)(=O)Nc1cccc(-c2nc(C(C)(C)C)sc2-c2ccnc(Nc3ccc(N4CCN(C(=O)[C@H]5CC[C@H](CN6CCc7ccc(C8CCC(=O)NC8=O)cc7C6)CC5)CC4)cn3)n2)c1F (mixture of isomers) [Compound 124, Rac-(3S)-3-(2-{[(1r,4r)-4-{4-[6-({4-[2-tert-butyl-4-(3-{[ethyl(methyl)sulfamoyl]amino}-2-fluorophenyl)-1,3-thiazol-5-yl]pyrimidin-2-yl}amino)pyridin-3-yl]piperazine-1-carbonyl}cyclohexyl]methyl}-1,2,3,4-tetrahydroisoquinolin-7-yl)piperidine-2,6-dione]
